{
  "source": "patent US20030096311A1",
  "about": "“Screening method for compounds” (priority 2000, published 2003)",
  "key": {"IFN-γ [1]": {"target": "T1, IFN-γ (Homo sapiens, UniProt P01579)", "T1 sequence (P01579 24-161 limits assumed)": "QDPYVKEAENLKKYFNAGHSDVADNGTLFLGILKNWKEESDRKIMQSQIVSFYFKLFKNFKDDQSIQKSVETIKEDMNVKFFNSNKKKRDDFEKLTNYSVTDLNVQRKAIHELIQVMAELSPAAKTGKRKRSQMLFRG", "test": "ELISA detection of IFN-γ after overnight cell-free incubation with BP", "assay_type": "binding", "conditions": "overnight with BP 500 μg/ml", "procedure": "The generation of PBMC supernatants and RNA used for this method were prepared as follows. PBMC ([…]) were incubated in RPMI-1640 medium containing TCH (ICN) with or without PHA (Sigma, 2.5 μg/ml). At each time point, samples were centrifuged for 5 min at 400 g, the supernatants collected and analyzed of IFN-γ by ELISA (IDS, Boldon, UK).\nPurified recombinant IFN-γ or cell-free supernatants from stimulated PBMC were incubated overnight with BP (500 μg/ml), then assayed by ELISA, Supernatant 1, PBMC stimulated for 20 hours with IL-2; supernatant 2, PBMC stimulated for 43 hours with IL-2; supernatant 3, PBMC stimulated for 43 hours with PHA."}, "IL-4": {"target": "T2, IL-4 (Homo sapiens, UniProt P05112)", "T2 sequence (P05112 25-153)": "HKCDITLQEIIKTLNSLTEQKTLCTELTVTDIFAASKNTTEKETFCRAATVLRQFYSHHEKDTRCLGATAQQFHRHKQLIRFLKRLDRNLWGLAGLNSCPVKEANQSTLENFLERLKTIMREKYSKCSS", "test": "Western blot with anti-BP antibody: comparative study with IL-4", "assay_type": "binding", "conditions": "IL-4 in place of IFN-γ; compared with IFN-γ", "procedure": "(§1) SDS-PAGE and Western Blotting techniques using for this method were performed as follows. Carrier-free recombinant human IFN-γ (PeproTech, London, UK) was made to 10 μg/ml and incubated overnight with or without BP (final concentrations 25, 5, 0.5 mg/ml). At the end of the incubation period, 5×loading buffer was added and 20 μl of each sample loaded onto SDS-polyacrylamide gels. The gels were then analyzed by Western blotting, using a rabbit polyclonal anti-BP antibody. A comparative study was conducted using IL-4 in place of IFN-γ.\n(§2) Carrier-free recombinant human IFN-γ (PeproTech, London, UK) were made to 10 μg/ml and incubated overnight with or without Benzyl Penicillin (BP) (final concentrations: 25, 5, 0.5 mg/ml). At the end of the incubation period, 5×loading buffer was added and 20 μl of each sample loaded onto SDS-polyacrylamide gels. For all samples, aliquots were then analyzed by Western blotting, using a rabbit polyclonal anti-BP antibody. A comparative study was conducted using IL-4 in place of IFN-γ."}, "IFN-γ [2]": {"target": "T3, IFN-γ (Homo sapiens, UniProt P01579)", "T3 sequence (P01579 24-166)": "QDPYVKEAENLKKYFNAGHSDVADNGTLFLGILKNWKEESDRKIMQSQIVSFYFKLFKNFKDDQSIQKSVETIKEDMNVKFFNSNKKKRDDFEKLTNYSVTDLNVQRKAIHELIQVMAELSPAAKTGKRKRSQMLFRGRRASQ", "test": "IFN-γ induction of MHC class II DR on peripheral blood monocytes after BP pre-incubation", "assay_type": "cell-based", "conditions": "IFN-γ 1 μg/ml pre-incubated overnight with various concentrations of BP; HMC-1 pulsed, co-cultured with PBM", "procedure": "Referring now to FIG. 2, there is shown a graph illustrating the results of a determination of whether the effect of conjugation or interaction of the substance, BP, with IFN-γ has an effect on IFN-γ activity. In summary, IFN-γ was tested for induction of MHC class II DR on human peripheral blood monocytes (PBM) as follows.\nIFN-γ (1 μg/ml) was incubated overnight with various concentrations of BP. HMC-1 cells were pulsed with or without IFN-γ (10 ng/ml), BP, or BP-treated IFN-γ, for 30 min and washed 3 times in PBS. The cells were resuspended in IFS and co-cultured (2×10^5) overnight with PBM (2×10^5) in a total volume of 200 μl in polypropylene tubes (Falcon). Six tubes were set up for each HMC-1 treatment."}, "IFN-γ [3]": {"target": "T3, IFN-γ", "test": "IFN-γ mediated up-regulation of MCP-1 mRNA in A549 cells (RNase protection)", "assay_type": "cell-based"}, "IFN-γ [4]": {"target": "T3, IFN-γ", "test": "Western blot with anti-BP antibody: conjugation of BP to IFN-γ", "assay_type": "binding", "design": "purchased PeproTech, London, UK", "conditions": "IFN-γ 10 μg/ml overnight with BP 25, 5, 0.5 mg/ml", "procedure": "as §1\nReferring now to FIG. 1, there is shown a Western blot illustrating the conjugation of BP to or interaction of BP to IFN-γ. FIG. 1 illustrates a method by which conjugation or interaction of a substance with a cytokine, namely IFN-γ, can be determined.\nas §2"}},
  "data": [
    {"smiles": "CC1(C)S[C@@H]2[C@H](NC(=O)Cc3ccccc3)C(=O)N2[C@H]1C(=O)O", "note": "[BP, benzyl penicillin]", "values": [
      {"measurement": "IFN-γ (pg/ml) detected with BP", "setting": "IFN-γ [1]; PBMC supernatant 1 (IL-2, 20 hours), without BP 152", "result": 0, "unit": "pg/mL"},
      {"measurement": "IFN-γ (pg/ml) detected with BP", "setting": "IFN-γ [1]; PBMC supernatant 2 (IL-2, 43 hours), without BP 389", "result": 0, "unit": "pg/mL"},
      {"measurement": "IFN-γ (pg/ml) detected with BP", "setting": "IFN-γ [1]; PBMC supernatant 3 (PHA, 43 hours), without BP >400", "result": 92, "unit": "pg/mL"},
      {"measurement": "IFN-γ (pg/ml) detected with BP", "setting": "IFN-γ [1]; recombinant IFN-γ 200 pg/ml, without BP 192", "result": 13, "unit": "pg/mL"},
      {"measurement": "IFN-γ (pg/ml) detected with BP", "setting": "IFN-γ [1]; recombinant IFN-γ 1000 pg/ml, without BP 1015", "result": 70, "unit": "pg/mL"},
      {"measurement": "conjugation to IL-4", "setting": "IL-4", "result": "conjugates to IL-4, though to a substantially lesser degree than to IFN-γ"},
      {"measurement": "IFN-γ bioactivity (increase in DR median fluorescence on PBM)", "setting": "IFN-γ [2]", "result": "reduced its bioactivity in a concentration dependent manner"},
      {"measurement": "induction of MCP-1 mRNA by IFN-γ", "setting": "IFN-γ [3]; BP mixed with IFN-γ immediately before addition to A549 cells, lanes 10-12", "result": "less marked inhibiting effect"},
      {"measurement": "induction of MCP-1 mRNA by IFN-γ", "setting": "IFN-γ [3]; IFN-γ pre-incubated overnight with BP (20 or 10 mg/ml), A549 cells, 2 hours, lanes 4-6", "result": "inhibited induction of MCP-1 mRNA"},
      {"measurement": "conjugation to IFN-γ", "setting": "IFN-γ [4]", "result": "conjugates to IFN-γ"}
    ]}
  ]
}
